Assay results taken from ChEMBL document CHEMBL1142130, “Quinolone resistance in Helicobacter pylori isolates in Germany” (2007).
Values after ≈ are worked out from the molar mass of the structure shown.

Tests used:
Type in all cases: functional
Helicobacter pylori [1] = assay: Antimicrobial activity against ciprofloxacin-resistant Helicobacter pylori 4 containing gyrA C261G mutation by Etest method
Helicobacter pylori [2] = assay: Antimicrobial activity against ciprofloxacin-resistant Helicobacter pylori 14 containing gyrA A272G mutation by Etest method
Helicobacter pylori [3] = assay: Antimicrobial activity against ciprofloxacin-resistant Helicobacter pylori 12 containing gyrA G271A mutation by Etest method
Helicobacter pylori [4] = assay: Antimicrobial activity against ciprofloxacin-resistant Helicobacter pylori 4 containing gyrA G271T mutation by Etest method
Helicobacter pylori [5] = assay: Antimicrobial activity against ciprofloxacin-resistant Helicobacter pylori 26 containing gyrA C261A mutation by Etest method

## O=C(O)c1cn(C2CC2)c2cc(N3CCNCC3)c(F)cc2c1=O [CIPROFLOXACIN]
Helicobacter pylori [1]
  MIC: 4 µg/mL (≈ 12.1 µM)
Helicobacter pylori [2]
  MIC: 16 µg/mL (≈ 48.3 µM)
Helicobacter pylori [3]
  MIC: 16 µg/mL (≈ 48.3 µM)
Helicobacter pylori [4]
  MIC: 8 µg/mL (≈ 24.1 µM)
Helicobacter pylori [5]
  MIC: 4 µg/mL (≈ 12.1 µM)
